What was measured:
A. baumannii PBP2 = biological target: T1, A. baumannii PBP2 (Acinetobacter baumannii, UniProt D0C8Z9); assay: Bocillin-FL fluorescence polarization competition binding assay, A. baumannii PBP2; settings: fluorescence polarization competition binding assay using Bocillin-FL; read-out: A. baumannii PBP2 Potency
T1 construct: made in house
T1 sequence (D0C8Z9 1-672): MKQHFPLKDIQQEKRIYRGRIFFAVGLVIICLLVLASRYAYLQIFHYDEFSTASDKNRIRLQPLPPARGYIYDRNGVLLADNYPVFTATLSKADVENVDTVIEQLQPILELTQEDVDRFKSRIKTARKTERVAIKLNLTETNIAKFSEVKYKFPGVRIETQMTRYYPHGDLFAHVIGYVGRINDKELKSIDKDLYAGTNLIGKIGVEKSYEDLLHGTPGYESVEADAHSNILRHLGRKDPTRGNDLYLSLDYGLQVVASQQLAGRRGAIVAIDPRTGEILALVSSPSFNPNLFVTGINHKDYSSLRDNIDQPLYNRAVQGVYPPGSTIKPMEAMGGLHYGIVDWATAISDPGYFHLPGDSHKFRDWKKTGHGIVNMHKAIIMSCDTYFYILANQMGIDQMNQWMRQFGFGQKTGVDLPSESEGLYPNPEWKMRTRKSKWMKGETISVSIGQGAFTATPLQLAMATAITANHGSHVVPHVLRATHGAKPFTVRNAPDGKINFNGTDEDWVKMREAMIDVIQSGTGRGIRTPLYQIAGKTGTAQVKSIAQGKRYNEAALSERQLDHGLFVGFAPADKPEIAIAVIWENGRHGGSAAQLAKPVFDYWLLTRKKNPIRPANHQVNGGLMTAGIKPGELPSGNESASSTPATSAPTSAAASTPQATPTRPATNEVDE
Text: Example I: Experimental Method for Penicillin-Binding Protein Binding Assays with Bocillin-FL Via Fluorescence Polarization
To determine the ability of boronic acid-based test PBP inhibitors to bind Penicillin Binding Proteins (PBPs), Bocillin-FL (fluorescently-labeled penicillin V; ThermoFisher Scientific) was used in a fluorescence polarization (FP) competition binding assay to assess inhibitor binding to PBP2, PBP3 or PBP4 from Escherichia coli (K12), PBP3 from Pseudomonas aeruginosa (PA01), PBP1a, PBP2 and PBP3 from Acinetobacter baumannii (ATCC 19606), and PBP2 from Neiserria gonorrheae (FA19). PBPs were cloned and purified as described previously (E. coli PBPs, King, D. T, et al., ACS Infectious Diseases 2015, 1, 175-184; P. aeruginosa PBP3, Han et. al., PNAS 2010, 107 (51), 22002-22007; A. baumannii PBPs, Penwell et. al., Antimicrob. Agents Chemother. 2015, 59 (3), 1680-1689; N. gonorrhoeae PBP2, Singh et. al., J Biol. Chem. 2019, 294 (38), 14020-14032). To establish assay conditions for competition binding, enzyme titration/saturation binding experiments were initially performed. Bocillin-FL was prepared at 0.2 μM in a buffer comprised of 50 mM Hepes (pH 8.0), 300 mM NaCl and 5% (v/v) glycerol for reactions with E. coli, P. aeruginosa and N. gonorrhoeae PBPs, and 25 mM Tris (pH 8.0), 200 mM NaCl and 10% (v/v) glycerol and 0.005% (v/v) Tween 20 for reactions with A. baumannii PBPs. Saturation binding was performed by mixing 40 μl of PBP solutions ranging in concentrations from 0-24 μM with 40 μl of the 0.2 μM Bocillin-FL solution, in individual wells of a black 384-well microplate. FP was measured immediately upon mixing (Excitation, 490 nm; Emission, 520 nm; g-factor, 0.96), using a Cytation3 (BioTek) microplate reader and measured continuously for up to 120 minutes. […] The competition binding assay (80 μl final volume) was validated using beta-lactams and PBPs at final concentrations of: 1.5 μM, E. coli PBP3; 0.75 μM, P. aeruginosa PBP3; 1 μM A. baumannii PBP1a; 2.5 μM A. baumannii PBP2; 0.2 μM A. baumannii PBP3; and […] N. gonorrhoeae PBP2. Bocillin-FL was at 0.1 μM (0.05 μM with A. baumannii PBP1a) and beta-lactam concentrations ranged from 0-1000 μM. […] Bocillin-FL was added and the FP immediately measured for up to 60 minutes (90 minutes for E. coli PBP2). […] The beta-lactam potency was reported as the concentration of beta-lactam required to reduce the amount of PBP bound-Bocillin-FL by 50% (EC50). […] Binding assays for boronic acid PBP inhibitors were performed in an identical fashion for the respective PBPs

N. gonorrhoeae PBP2 = biological target: T2, N. gonorrhoeae PBP2 (Neisseria gonorrhoeae, UniProt P08149); assay: Bocillin-FL fluorescence polarization competition binding assay, N. gonorrhoeae PBP2; settings: fluorescence polarization competition binding assay using Bocillin-FL; read-out: N. gonorrhoeae PBP2 Potency
T2 construct: made in house
Procedure, shortened: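 A. baumannii PBP2 (2.5 μM) and PBP3 (0.2 μM) were run in 25 mM Tris pH 8.0 buffer with Tween 20; E. coli PBP3 (1.5 μM) and N. gonorrhoeae PBP2 ([…]) in 50 mM Hepes pH 8.0 buffer.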

T2 sequence (P08149 whole entry): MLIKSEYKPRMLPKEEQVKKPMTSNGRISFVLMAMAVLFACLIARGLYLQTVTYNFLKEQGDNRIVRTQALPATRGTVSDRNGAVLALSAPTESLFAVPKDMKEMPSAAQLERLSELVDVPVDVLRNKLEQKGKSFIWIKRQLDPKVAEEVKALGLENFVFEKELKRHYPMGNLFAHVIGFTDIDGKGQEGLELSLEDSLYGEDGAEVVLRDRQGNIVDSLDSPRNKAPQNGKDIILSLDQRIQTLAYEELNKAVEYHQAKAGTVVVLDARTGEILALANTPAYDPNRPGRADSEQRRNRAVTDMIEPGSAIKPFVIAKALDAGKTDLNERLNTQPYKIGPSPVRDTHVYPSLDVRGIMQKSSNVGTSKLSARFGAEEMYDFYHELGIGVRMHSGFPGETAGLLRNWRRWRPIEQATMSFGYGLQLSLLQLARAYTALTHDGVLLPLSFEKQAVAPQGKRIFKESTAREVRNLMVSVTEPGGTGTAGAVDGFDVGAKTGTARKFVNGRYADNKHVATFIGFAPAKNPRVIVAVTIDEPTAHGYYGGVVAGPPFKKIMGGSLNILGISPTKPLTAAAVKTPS

Compound | EC50 (A. baumannii PBP2) [µM] | EC50 (N. gonorrhoeae PBP2) [µM]
CCN1CCN(C(=O)NC(C(=O)N[C@H]2Cc3cccc(C(=O)O)c3OB2O)c2c(F)cc(N)cc2F)C(=O)C1=O (stereo partly drawn) [Example 181, (3R)-3-(2-(4-amino-2,6-difluorophenyl)-2-(4-ethyl-2,3-dioxopiperazine-1-carboxamido)acetamido)-2-hydroxy-3,4-dihydro-2H-benzo[e][1,2]oxaborinine-8-carboxylic acid] | > 100 | > 100
NCCN1CCN(C(=O)N[C@@H](C(=O)N[C@H]2Cc3ccc(F)c(C(=O)O)c3OB2O)c2cc(F)c(O)c(O)c2Cl)C(=O)C1=O (single isomer, unassigned) [Example 179] | > 100 | > 100
NS(=O)(=O)c1cc(O)cc(C(NC(=O)N2CCN(Cc3c(F)cc(O)c(O)c3Cl)C(=O)C2=O)C(=O)N[C@H]2Cc3cccc(C(=O)O)c3OB2O)c1 (stereo partly drawn) [Example 132, (3R)-3-(2-(4-(2-chloro-6-fluoro-3,4-dihydroxybenzyl)-2,3-dioxopiperazine-1-carboxamido)-2-(3-hydroxy-5-sulfamoylphenyl)acetamido)-2-hydroxy-3,4-dihydro-2H-benzo[e][1,2]oxaborinine-8-carboxylic acid] | > 100 | 
NS(=O)(=O)Nc1cccc(C(NC(=O)N2CCN(Cc3c(F)cc(O)c(O)c3Cl)C(=O)C2=O)C(=O)N[C@H]2Cc3cccc(C(=O)O)c3OB2O)c1 (stereo partly drawn) [Example 131, (3R)-3-(2-(4-(2-chloro-6-fluoro-3,4-dihydroxybenzyl)-2,3-dioxopiperazine-1-carboxamido)-2-(3-(sulfamoylamino)phenyl)acetamido)-2-hydroxy-3,4-dihydro-2H-benzo[e][1,2]oxaborinine-8-carboxylic acid] | 30 to 100 | 
CCN1CCN(C(=O)N[C@@H](C(=O)N[C@H]2Cc3cccc(C(=O)O)c3OB2O)c2ccc(C(=O)O)c(F)c2)C(=O)C1=O (single isomer, unassigned) [Example 146] |  | < 10
CCN1CCN(C(=O)N[C@@H](C(=O)N[C@H]2Cc3cccc(C(=O)O)c3OB2O)c2ccc(C(=O)O)c(Cl)c2)C(=O)C1=O (single isomer, unassigned) [Example 154] |  | < 10
CCN1CCN(C(=O)N[C@H](C(=O)N[C@H]2Cc3cccc(C(=O)O)c3OB2O)c2ccc(C(=O)O)c(F)c2)C(=O)C1=O (single isomer, unassigned) [Example 147] |  | < 10
NCCCN1CCN(C(=O)NC(C(=O)N[C@H]2Cc3ccc(F)c(C(=O)O)c3OB2O)c2c(F)cc(O)cc2F)C(=O)C1=O (stereo partly drawn) [Example 178, (3R)-3-(2-(4-(3-aminopropyl)-2,3-dioxopiperazine-1-carboxamido)-2-(2,6-difluoro-4-hydroxyphenyl)acetamido)-7-fluoro-2-hydroxy-3,4-dihydro-2H-benzo[e][1,2]oxaborinine-8-carboxylic acid] |  | > 100
C[C@@H](O)[C@@H](NC(=O)N1CCN(CCNC(=O)c2c(F)cc(O)c(O)c2Cl)C(=O)C1=O)C(=O)N[C@H]1Cc2ccc(F)c(C(=O)O)c2OB1O [Example 102, (R)-3-((2R,3R)-2-(4-(2-(2-chloro-6-fluoro-3,4-dihydroxybenzamido)ethyl)-2,3-dioxopiperazine-1-carboxamido)-3-hydroxybutanamido)-7-fluoro-2-hydroxy-3,4-dihydro-2H-benzo[e][1,2]oxaborinine-8-carboxylic acid] | > 100 | 10 to 30
CCN1CCN(C(=O)NC(C(=O)N[C@H]2Cc3cccc(C(=O)O)c3OB2O)c2cccc(C(=O)O)c2)C(=O)C1=O (stereo partly drawn) [Example 113, (3R)-3-(2-(3-carboxyphenyl)-2-(4-ethyl-2,3-dioxopiperazine-1-carboxamido)acetamido)-2-hydroxy-3,4-dihydro-2H-benzo[e][1,2]oxaborinine-8-carboxylic acid] |  | < 10
NC1(CN2CCN(C(=O)N[C@@H](C(=O)N[C@H]3Cc4ccc(F)c(C(=O)O)c4OB3O)c3c(F)cc(O)c(O)c3Cl)C(=O)C2=O)CC1 (single isomer, unassigned) [Example 134] | 30 to 100 | 
NCCCN1CCN(C(=O)N[C@@H](C(=O)N[C@H]2Cc3ccc(F)c(C(=O)O)c3OB2O)c2cc(F)c(O)c(O)c2Cl)C(=O)C1=O (single isomer, unassigned) [Example 180] | > 100 | > 100

From US20230114728A1 (Venatorx Pharmaceuticals, Inc., priority 2019, published 2023)
